# Columns and labels:
# Format in all cases: in vivo
# [1] = tested on: field corn (Zea mays L., var. Dekalb 535, CORN); assay: Post-emerge test, crop safety; conditions: post-emerge, crop damage rating 0-100 at 14 days after application
# Summary of the method: (§1)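 Sandy loam pots; pre-emerge: sown 1 d pre-spray, surface-watered after, then bottom-watered. Post-emerge: sown 8–21 d before, 2–3 leaf stage, + 0.25% v/v NIS, bottom-watered. Acetone, 187 l/ha track spray, 15–1000 g ai/ha. 0–100 injury score, day 14.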
# [2] = tested on: upland rice (Oryza sp., var. Tebonnet, RICE); assay: Post-emerge test, crop safety; conditions: post-emerge, crop damage rating 0-100 at 14 days after application
# Summary of the method: as §1
# [3] = tested on: redroot pigweed (Amaranthus retroflexus, AMARE); assay: Post-emerge test, greenhouse herbicide activity screening; conditions: post-emerge, phytotoxicity rating 0-100 at 14 days after application
# Summary of the method: (§2)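 Visual ratings on a 0-100 scale (0 no damage, 100 all plants dead) were taken at 14 days after treatment. Rates of 15-1000 g ai/ha in acetone, 187 l/ha, were sprayed onto soil one day after planting (pre-emerge) or onto 2-3 leaf plants with 0.25% v/v surfactant (post-emerge).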
# [4] = tested on: barnyardgrass (Echinochloa crus-galli, ECHCG); assay: as above; conditions: post-emerge, phytotoxicity rating 0-100 at 14 days after application
# Summary of the method: as §2
# [5] = tested on: ivyleaf morningglory (Ipomoea hederacea, IPOHE); assay: as above; conditions: post-emerge, phytotoxicity rating 0-100 at 14 days after application
# Summary of the method: as §2
# [6] = tested on: sicklepod (Cassia obtusifolia, CASOB); assay: as above; conditions: post-emerge, phytotoxicity rating 0-100 at 14 days after application
# Summary of the method: as §2
# [7] = tested on: velvetleaf (Abutilon theophrasti, ABUTH); assay: as above; conditions: post-emerge, phytotoxicity rating 0-100 at 14 days after application
# Summary of the method: as §2
# [8] = tested on: large crabgrass (Digitaria sanguinalis, DIGSA); assay: as above; conditions: post-emerge, phytotoxicity rating 0-100 at 14 days after application
# Summary of the method: as §2
# [9] = tested on: lambsquarters (Chenopodium album, CHEAL); assay: as above; conditions: post-emerge, phytotoxicity rating 0-100 at 14 days after application
# Summary of the method: as §2
# [10] = tested on: johnsongrass (Sorghum halepense, SORHA); assay: as above; conditions: post-emerge, phytotoxicity rating 0-100 at 14 days after application
# Summary of the method: as §2
# [11] = tested on: green foxtail (Setaria viridis, SETVI); assay: as above; conditions: post-emerge, phytotoxicity rating 0-100 at 14 days after application
# Summary of the method: as §2
# [12] = tested on: redroot pigweed (Amaranthus retroflexus, AMARE); assay: Pre-emerge test, greenhouse herbicide activity screening; conditions: rating scale 0-100, 14 days after application
# Summary of the method: as §2
# [13] = tested on: barnyardgrass (Echinochloa crus-galli, ECHCG); assay: as above; conditions: rating scale 0-100, 14 days after application
# Summary of the method: as §1
# [14] = tested on: ivyleaf morningglory (Ipomoea hederacea, IPOHE); assay: as above; conditions: rating scale 0-100, 14 days after application
# Summary of the method: as §1
# [15] = tested on: sicklepod (Cassia obtusifolia, CASOB); assay: as above; conditions: rating scale 0-100, 14 days after application
# Summary of the method: as §1
# [16] = tested on: velvetleaf (Abutilon theophrasti, ABUTH); assay: as above; conditions: rating scale 0-100, 14 days after application
# Summary of the method: as §1
# [17] = tested on: large crabgrass (Digitaria sanguinalis, DIGSA); assay: as above; conditions: rating scale 0-100, 14 days after application
# Summary of the method: as §1
# [18] = tested on: lambsquarters (Chenopodium album, CHEAL); assay: as above; conditions: rating scale 0-100, 14 days after application
# Summary of the method: as §1
# [19] = tested on: johnsongrass (Sorghum halepense, SORHA); assay: as above; conditions: rating scale 0-100, 14 days after application
# Summary of the method: as §1
# [20] = tested on: green foxtail (Setaria viridis, SETVI); assay: as above; conditions: rating scale 0-100, 14 days after application
# Summary of the method: as §1
# [21] = tested on: field corn (Zea mays L., var. Dekalb 535, CORN); assay: Pre-emerge test, crop safety; conditions: rating scale 0-100, 14 days after application
# Summary of the method: (§3)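 Plants grown in 10 cm pots of sandy loam mix received acetone-dissolved compounds through a moving flat-fan nozzle. Doses ranged from 15 to 1000 g ai/ha. Pre-emerge pots were seeded one day earlier, post-emerge pots 8–21 days earlier. Fourteen days on, each pot was graded 0–100 for damage.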
# [22] = tested on: upland rice (Oryza sp., var. Tebonnet, RICE); assay: Pre-emerge test, crop safety; conditions: rating scale 0-100, 14 days after application
# Summary of the method: as §3
structure (smiles),measurement,setting,value
O=C(Nc1cc(Cl)ccc1N1C(=O)C2CCCCN2C1=O)c1ccc2ccccc2c1 (centres unmarked) [12-8],Post-emerge Herbicidal Activity CORN,[1]; 63 g ai/ha,5
same,Post-emerge Herbicidal Activity CORN,[1]; 250 g ai/ha,10
same,Post-emerge Herbicidal Activity RICE,[2]; 63 g ai/ha,20
same,Post-emerge Herbicidal Activity RICE,[2]; 250 g ai/ha,15
same,Post-emerge Herbicidal Activity AMARE,[3]; 63 g ai/ha,80
same,Post-emerge Herbicidal Activity AMARE,[3]; 250 g ai/ha,90
same,Post-emerge Herbicidal Activity ECHCG,[4]; 63 g ai/ha,10
same,Post-emerge Herbicidal Activity ECHCG,[4]; 250 g ai/ha,10
same,Post-emerge Herbicidal Activity IPOHE,[5]; 63 g ai/ha,90
same,Post-emerge Herbicidal Activity IPOHE,[5]; 250 g ai/ha,80
same,Post-emerge Herbicidal Activity CASOB,[6]; 63 g ai/ha,50
same,Post-emerge Herbicidal Activity CASOB,[6]; 250 g ai/ha,70
same,Post-emerge Herbicidal Activity ABUTH,[7]; 63 g ai/ha,100
same,Post-emerge Herbicidal Activity ABUTH,[7]; 250 g ai/ha,100
same,Post-emerge Herbicidal Activity DIGSA,[8]; 63 g ai/ha,10
same,Post-emerge Herbicidal Activity DIGSA,[8]; 250 g ai/ha,0
same,Post-emerge Herbicidal Activity CHEAL,[9]; 63 g ai/ha,95
same,Post-emerge Herbicidal Activity CHEAL,[9]; 250 g ai/ha,99
same,Post-emerge Herbicidal Activity SORHA,[10]; 63 g ai/ha,0
same,Post-emerge Herbicidal Activity SORHA,[10]; 250 g ai/ha,10
same,Post-emerge Herbicidal Activity SETVI,[11]; 63 g ai/ha,20
same,Post-emerge Herbicidal Activity SETVI,[11]; 250 g ai/ha,25
same,"Pre-emerge herbicidal activity, phytotoxicity rating AMARE",[12]; 63 g ai/ha,100
same,"Pre-emerge herbicidal activity, phytotoxicity rating AMARE",[12]; 250 g ai/ha,100
same,"Pre-emerge herbicidal activity, phytotoxicity rating ECHCG",[13]; 63 g ai/ha,0
same,"Pre-emerge herbicidal activity, phytotoxicity rating ECHCG",[13]; 250 g ai/ha,40
same,"Pre-emerge herbicidal activity, phytotoxicity rating IPOHE",[14]; 63 g ai/ha,0
same,"Pre-emerge herbicidal activity, phytotoxicity rating IPOHE",[14]; 250 g ai/ha,40
same,"Pre-emerge herbicidal activity, phytotoxicity rating CASOB",[15]; 63 g ai/ha,0
same,"Pre-emerge herbicidal activity, phytotoxicity rating CASOB",[15]; 250 g ai/ha,20
same,"Pre-emerge herbicidal activity, phytotoxicity rating ABUTH",[16]; 63 g ai/ha,0
same,"Pre-emerge herbicidal activity, phytotoxicity rating ABUTH",[16]; 250 g ai/ha,100
same,"Pre-emerge herbicidal activity, phytotoxicity rating DIGSA",[17]; 63 g ai/ha,50
same,"Pre-emerge herbicidal activity, phytotoxicity rating DIGSA",[17]; 250 g ai/ha,100
same,"Pre-emerge herbicidal activity, phytotoxicity rating CHEAL",[18]; 63 g ai/ha,100
same,"Pre-emerge herbicidal activity, phytotoxicity rating CHEAL",[18]; 250 g ai/ha,100
same,"Pre-emerge herbicidal activity, phytotoxicity rating SORHA",[19]; 63 g ai/ha,10
same,"Pre-emerge herbicidal activity, phytotoxicity rating SORHA",[19]; 250 g ai/ha,40
same,"Pre-emerge herbicidal activity, phytotoxicity rating SETVI",[20]; 63 g ai/ha,60
same,"Pre-emerge herbicidal activity, phytotoxicity rating SETVI",[20]; 250 g ai/ha,100
same,"Pre-emerge phytotoxicity rating, crop damage CORN",[21]; 63 g ai/ha,0
same,"Pre-emerge phytotoxicity rating, crop damage CORN",[21]; 250 g ai/ha,0
same,"Pre-emerge phytotoxicity rating, crop damage RICE",[22]; 63 g ai/ha,30
same,"Pre-emerge phytotoxicity rating, crop damage RICE",[22]; 250 g ai/ha,40
